Experimental findings from patent US11613556B2, “Oxysterols and methods of use thereof” (Sage Therapeutics, Inc., priority 2016, dated 2023) are described below.

Each structure is given as a SMILES string. pEC50: −log10 of the molar value. Where two headings read alike, the source gives them in different places. Bounds are passed on as bounds.

What is called pEC50 is the negative decadic logarithm of the EC50, by convention in mol/L. In general, Emax refers to the size of the effect at its maximum, as opposed to the concentration needed.

Type in all cases: cell-based
For experiment [1], the target named is glutamate-activated channels of the GRIN1/2A subtype stably transfected in HEK 293 cells (Homo sapiens (Human), UniProt Q05586+Q12879). Nature of the experiment: Automated patch-clamp system (QPatch HTX), percent potentiation at 1 μM. The settings on record: HEK293, 1 μM test compound, 300 μM NMDA with 8 μM glycine, HEK 293 GRIN1/2A, read-out: GluN2A PCA % potentiation at 1 μM. The method, then:
(§1) NMDA potentiation in mammalian cells which expressed NMDA receptors was assessed using the automatic patch-clamp system can be used determine the NAM activity of compounds as described below. An whole cell patch-clamp system can be used determine the PAM activity of compounds as described below.
Automated Patch-Clamp System (OPatch HTX):
In this study, HEK 293 cells stably transfected with glutamate-activated channels of the GRIN1/2A subtype will be used together with submaximal NMDA concentrations (300 μM NMDA, co-application with 8 μM Glycine) to investigate the negative allosteric modulation of the test compounds.
In general, cells will be passaged at a confluence of about 80% to […]. For electrophysiological measurements cells will be harvested at a confluence of about 80% to 90% from sterile culture flasks containing culture complete medium. Cells will be transferred as suspension in PBS to the QPatch 16X or QPatch HTX system to the centrifuge/washer directly.
Standard Laboratory Conditions: Cells will be incubated at 37° C. in a humidified atmosphere with 5% CO2 (rel. humidity about 95%).
Culture media: The cells will be continuously maintained in and passaged in sterile culture flasks containing a 1:1 mixture of Dulbecco's modified eagle medium and nutrient mixture F-12 (D-MEM/F-12 1×, liquid, with L-Glutamine) supplemented with 10% fetal bovine serum, 1% Penicillin/Streptomycin solution, and 50 μM AP-5 blocker.
Antibiotics: The complete medium as indicated above is supplemented with 100 μg/mL hygromycin, 15 μg/mL blasticidin and 1 μg/mL puromycin.
Induction of Expression: 2.5 μg/mL tetracycline is added 24 h before start of experiments.
Dose levels are in terms of test compounds, as supplied. Vehicle will be added to achieve a stock concentration of 10 mM (storage at −10° C. to −30° C.). A further stock solutions of 1.0 mM will be prepared in DMSO. Details of stock solution usage (thawing, dose formulations) will be documented in the raw data. The time period of stock solution usage will be detailed in the report.
Test Compound Concentrations
One test concentration of 1.0 μM will be tested.
All test solutions will be prepared by diluting the stock solutions with either Mg-free bath solution only or Mg-free bath solution containing NMDA (300 μM) and glycine (8.0 μM) shortly prior to the electrophysiological experiments and kept at room temperature (19° C. to 30° C.) when in use. 0.1% DMSO will be used as vehicle.
Frequency of preparation: For each test concentration, fresh solutions of test compounds will be prepared every day.
Stability of dose formulation: All preparation times will be documented in the raw data. Any observations regarding instability of test compounds will be mentioned in the raw data.
Storage of dose formulation: On the day of experimentation dose formulations will be maintained at room temperature (19° C. to 30° C.) when in use.
For preparing the experiments and for formation of the giga-ohm-seal, the following standard bath solution will be used:
Sodium Chloride: 137 mM; Potassium Chloride: 4 mM; Calcium Chloride: 1.8 mM; Magnesium Chloride: 1 mM; HEPES: 10 mM; D-Glucose: 10 mM; Cremophor: 0.02%; pH (NaOH): 7.4
The 1× bath solution will be prepared by diluting 10× bath solution without Glucose and 100× Glucose solution with water at least every 7 days. Both stock solutions have been prepared prior to the experimental start of the present study and stored at 1° C. to 9° C. (10× bath solution) or −10° C. to −30° (100× Glucose solution). The batch number(s) of the bath solution(s) used in the experiments will be documented in the raw data. When in use, the 1× bath solution will be kept at room temperature (19° C. to 30° C.). When not in use, the 1× bath solution will be stored at 1° C. to 9° C.
After the giga-seal was formed the following Mg-free bath solution will be used:
Sodium Chloride: 137 mM; Potassium Chloride: 4 mM; Calcium Chloride; 2.8 mM; HEPES: 10 mM; D-Glucose: 10 mM; Cremophor: 0.02%; pH (NaOH): 7.4 […]
A general note: The patch-clamp technique gives a direct electrical read-out from membranes.

The target of experiment [2] is GluN2B glutamate receptors expressed in mammalian cells (Homo sapiens (Human), UniProt Q05586+Q13224). Briefly: Whole-cell patch clamp of mammalian cells (Ionworks Barracuda), positive allosteric modulation, GluN2B. The settings on record: for Emax: read-out: GluN2B PCA EMax (%). The method, then:
as §1
(§2) The measurements were performed using Ion Works Barracuda platform following this procedure:
(§3) Electrophysiological Procedures: • a) Intracellular solution (mM): 50 mM CsCl, 90 mM CsF, 2 mM MgCl2, 5 mM EGTA, 10 mM HEPES. Adjust to pH 7.2 with CsOH. • b) Extracellular solution, HB-PS (composition in mM): NaCl, 137; KCl, 1.0; CaCl2, 5; HEPES, 10; Glucose, 10; pH adjusted to 7.4 with NaOH (refrigerated until use). • c) Holding potential: −70 mV, potential during agonist/PAM application: −40 mV.
(§4) Recording Procedure: • a) Extracellular buffer will be loaded into the PPC plate wells (11 μL per well). Cell suspension will be pipetted into the wells (9 μL per well) of the PPC planar electrode. • b) Whole-cell recording configuration will be established via patch perforation with membrane currents recorded by on-board patch clamp amplifiers. • c) Two recordings (scans) will be performed. First, during pre-application of test article alone (duration of pre-application—5 min) and second, during test articles and agonist (EC20 L-glutamate and 30 μM glycine) co-application to detect positive modulatory effects of the test article.
(§5) Test Article Administration: The first pre-application will consist of the addition of 20 μL of 2× concentrated test article solution and, second, of 20 μL of 1× concentrated test article and agonist at 10 μL/s (2 second total application time).
(§6) Potentiating Effect of Positive Allosteric Modulators (PAM) on the Channel
(§7) The maximal amplitude of the evoked currents are measured and defined as Peak Current Amplitude (PCA).

Experiment [3] addresses GluN1/GluN2A glutamate receptors (human GRIN1/GRIN2A) expressed in HEK293 cells (Homo sapiens (Human), UniProt Q05586+Q12879). Nature of the experiment: Whole-cell patch clamp of mammalian cells (Ionworks Barracuda), positive allosteric modulation, GluN1/GluN2A. The settings on record: for Emax: read-out: GluN2A PCA EMax (%). The method, then: as §1, §2, §3, §4, §5, §6, §7

[4] abbreviates: peak current amplitude, co-application with EC20 L-glutamate and 30 μM glycine, read-out: GluN2B PCA EC50.
The mark [5] stands for this setting: peak current amplitude, co-application with EC20 L-glutamate and 30 μM glycine.
The mark [6] stands for this setting: peak current amplitude, co-application with EC20 L-glutamate and 30 μM glycine, HEK293.

GluN2B glutamate receptors expressed in mammalian cells, sequence (Q13224 27-1484, other chains not shown): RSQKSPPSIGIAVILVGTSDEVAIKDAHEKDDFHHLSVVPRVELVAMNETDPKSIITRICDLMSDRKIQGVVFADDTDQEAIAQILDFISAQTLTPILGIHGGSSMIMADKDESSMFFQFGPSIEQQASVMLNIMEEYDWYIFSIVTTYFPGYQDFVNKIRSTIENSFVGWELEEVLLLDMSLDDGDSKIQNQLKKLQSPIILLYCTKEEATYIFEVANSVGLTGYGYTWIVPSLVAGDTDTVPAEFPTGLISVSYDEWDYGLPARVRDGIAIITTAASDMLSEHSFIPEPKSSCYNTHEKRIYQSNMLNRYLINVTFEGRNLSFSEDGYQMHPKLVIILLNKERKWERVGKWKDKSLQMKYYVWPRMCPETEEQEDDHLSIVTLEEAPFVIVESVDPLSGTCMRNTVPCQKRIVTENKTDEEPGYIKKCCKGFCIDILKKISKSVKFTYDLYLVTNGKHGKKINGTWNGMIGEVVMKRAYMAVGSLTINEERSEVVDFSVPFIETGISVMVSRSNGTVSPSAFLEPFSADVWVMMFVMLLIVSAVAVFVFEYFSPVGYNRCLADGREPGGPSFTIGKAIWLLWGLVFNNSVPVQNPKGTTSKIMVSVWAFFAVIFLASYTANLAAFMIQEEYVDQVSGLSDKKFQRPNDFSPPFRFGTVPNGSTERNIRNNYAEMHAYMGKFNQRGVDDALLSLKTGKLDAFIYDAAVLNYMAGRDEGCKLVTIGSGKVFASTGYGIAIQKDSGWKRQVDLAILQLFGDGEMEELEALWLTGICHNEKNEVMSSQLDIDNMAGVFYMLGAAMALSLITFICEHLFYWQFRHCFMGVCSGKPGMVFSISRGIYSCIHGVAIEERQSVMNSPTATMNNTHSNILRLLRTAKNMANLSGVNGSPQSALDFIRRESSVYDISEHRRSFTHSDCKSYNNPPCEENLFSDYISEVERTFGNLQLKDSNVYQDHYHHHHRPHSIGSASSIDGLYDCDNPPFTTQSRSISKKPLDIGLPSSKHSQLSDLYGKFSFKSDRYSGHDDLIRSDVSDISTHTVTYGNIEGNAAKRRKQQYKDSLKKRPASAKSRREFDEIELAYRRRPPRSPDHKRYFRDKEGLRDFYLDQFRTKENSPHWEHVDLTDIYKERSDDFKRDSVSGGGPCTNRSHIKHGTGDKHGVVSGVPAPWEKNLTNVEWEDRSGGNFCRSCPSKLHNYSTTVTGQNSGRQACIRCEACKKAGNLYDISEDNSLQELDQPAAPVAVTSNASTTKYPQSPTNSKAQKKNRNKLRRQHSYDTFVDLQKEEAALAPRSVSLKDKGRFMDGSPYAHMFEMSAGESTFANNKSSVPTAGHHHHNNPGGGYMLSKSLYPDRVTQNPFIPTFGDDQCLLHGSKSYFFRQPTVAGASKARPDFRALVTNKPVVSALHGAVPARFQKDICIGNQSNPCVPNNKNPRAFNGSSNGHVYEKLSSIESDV
glutamate-activated channels of the GRIN1/2A subtype stably transfected in HEK 293 cells, sequence (Q12879 whole entry, looked up, other chains not shown): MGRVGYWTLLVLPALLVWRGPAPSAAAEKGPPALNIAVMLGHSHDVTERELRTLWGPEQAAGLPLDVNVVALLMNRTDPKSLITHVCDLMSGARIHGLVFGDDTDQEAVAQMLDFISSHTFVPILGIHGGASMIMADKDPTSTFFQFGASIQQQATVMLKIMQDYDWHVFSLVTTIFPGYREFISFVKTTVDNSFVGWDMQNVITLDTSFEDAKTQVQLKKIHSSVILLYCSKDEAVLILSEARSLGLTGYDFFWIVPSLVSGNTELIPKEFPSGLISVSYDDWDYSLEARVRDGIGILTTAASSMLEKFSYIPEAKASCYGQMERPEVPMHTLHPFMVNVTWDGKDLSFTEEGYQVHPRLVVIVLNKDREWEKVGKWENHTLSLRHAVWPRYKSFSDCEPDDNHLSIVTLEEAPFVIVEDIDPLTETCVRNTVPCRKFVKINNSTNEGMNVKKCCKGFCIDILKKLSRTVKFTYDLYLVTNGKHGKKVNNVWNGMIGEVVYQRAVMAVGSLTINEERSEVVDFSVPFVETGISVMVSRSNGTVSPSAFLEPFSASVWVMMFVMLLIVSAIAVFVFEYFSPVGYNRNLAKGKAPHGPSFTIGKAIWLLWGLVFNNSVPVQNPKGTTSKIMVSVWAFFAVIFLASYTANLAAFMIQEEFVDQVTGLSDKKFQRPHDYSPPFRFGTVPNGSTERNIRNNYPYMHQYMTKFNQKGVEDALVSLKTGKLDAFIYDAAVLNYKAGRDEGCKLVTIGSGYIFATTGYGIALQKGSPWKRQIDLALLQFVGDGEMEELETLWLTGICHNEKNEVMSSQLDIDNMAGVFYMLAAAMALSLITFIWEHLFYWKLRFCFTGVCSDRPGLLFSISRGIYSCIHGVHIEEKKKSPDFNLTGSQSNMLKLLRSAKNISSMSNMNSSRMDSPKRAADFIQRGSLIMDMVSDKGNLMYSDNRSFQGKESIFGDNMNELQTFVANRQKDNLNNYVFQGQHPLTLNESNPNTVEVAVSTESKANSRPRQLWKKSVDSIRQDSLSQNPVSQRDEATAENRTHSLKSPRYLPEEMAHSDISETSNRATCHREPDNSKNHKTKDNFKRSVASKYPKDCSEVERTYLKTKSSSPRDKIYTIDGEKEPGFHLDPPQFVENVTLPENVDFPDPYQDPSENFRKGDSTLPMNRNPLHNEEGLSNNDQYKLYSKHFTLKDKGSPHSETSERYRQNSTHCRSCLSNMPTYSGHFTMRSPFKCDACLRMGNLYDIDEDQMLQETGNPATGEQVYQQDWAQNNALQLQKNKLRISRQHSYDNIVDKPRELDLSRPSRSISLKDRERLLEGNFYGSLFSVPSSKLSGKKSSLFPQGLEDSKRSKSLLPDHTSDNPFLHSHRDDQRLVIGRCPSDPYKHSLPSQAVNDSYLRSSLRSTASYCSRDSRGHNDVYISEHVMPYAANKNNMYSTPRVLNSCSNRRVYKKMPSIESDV
GluN1/GluN2A glutamate receptors (human GRIN1/GRIN2A) expressed in HEK293 cells, sequence (Q12879 whole entry, looked up, other chains not shown): as above

For the compound `CC(C)CC[C@@H](O)[C@@H](C)[C@H]1CC[C@H]2[C@@H]3CC[C@H]4C[C@](O)(C(F)(F)F)CC[C@]4(C)[C@H]3CC[C@]12C` [Compound 85, (3S,5S,8R,9S,10S,13S,14S,17R)-17-((2S,3R)-3-hydroxy-6-methylheptan-2-yl)-10,13-dimethyl-3-(trifluoromethyl)hexadecahydro-1H-cyclopenta[a]phenanthren-3-ol], in experiment [1], the activation at 1 µM is -10 to 10%.

For the compound `CC[C@]1(O)CC[C@@]2(C)[C@@H](CC[C@@H]3[C@@H]2CC[C@]2(C)[C@@H]([C@H](C)[C@H](O)C(F)(F)F)CC[C@@H]32)C1` [Compound 11, (3S,5S,8R,9S,10S,13S,14S,17R)-3-ethyl-10,13-dimethyl-17-((2S,3S)-4,4,4-trifluoro-3-hydroxybutan-2-yl)hexadecahydro-1H-cyclopenta[a]phenanthren-3-ol], the activation at 1 µM in experiment [1] was less than -40%.

For `CC(C)CC[C@H](O)[C@@H](C)[C@H]1CC[C@H]2[C@@H]3CC=C4C[C@@](C)(O)CC[C@@H]4[C@H]3CC[C@]12C` [Compound 80, (3S,8R,9S,10R,13S,14S,17R)-17-((2S,3S)-3-hydroxy-6-methylheptan-2-yl)-3,13-dimethyl-2,3,4,7,8,9,10,11,12,13,14,15,16,17-tetradecahydro-1H-cyclopenta[a]phenanthren-3-ol], in experiment [1], the activation at 1 µM is -40 to -10%.

In the case of `CC[C@]1(O)CC[C@@]2(C)C(=CC[C@H]3[C@@H]4CC[C@H]([C@H](C)[C@H](O)C(F)(F)F)[C@@]4(C)CC[C@@H]32)C1` [Compound 81, (3S,8S,9S,10R,13S,14S,17R)-3-ethyl-10,13-dimethyl-17-((2S,3S)-4,4,4-trifluoro-3-hydroxybutan-2-yl)-2,3,4,7,8,9,10,11,12,13,14,15,16,17-tetradecahydro-1H-cyclopenta[a]phenanthren-3-ol], the activation at 1 µM in experiment [1] was -40 to -10%.

With `COC[C@]1(O)CC[C@@]2(C)[C@H](CC[C@@H]3[C@@H]2CC[C@]2(C)[C@@H]([C@H](C)[C@@H](O)C(F)(F)F)CC[C@@H]32)C1` [Compound 9, (3S,5R,8R,9S,10S,13S,14S,17R)-3-(methoxymethyl)-10,13-dimethyl-17-((2S,3R)-4,4,4-trifluoro-3-hydroxybutan-2-yl)hexadecahydro-1H-cyclopenta[a]phenanthren-3-ol], the activation at 1 µM in experiment [1] is -40 to -10%.

For the compound `CC[C@]1(O)CC[C@@]2(C)C(=CC[C@H]3[C@@H]4CC[C@H]([C@H](C)[C@@H](O)CCC(C)C)[C@@]4(C)CC[C@@H]32)C1` [Compound 77, (3S,8S,9S,10R,13S,14S,17R)-3-ethyl-17-((2S,3S)-3-hydroxy-6-methylheptan-2-yl)-10,13-dimethyl-2,3,4,7,8,9,10,11,12,13,14,15,16,17-tetradecahydro-1H-cyclopenta[a]phenanthren-3-ol], the pEC50 in experiment [2] (setting [4]) and in experiment [3] was less than 6.00 each time. In addition, the Emax in experiment [2] (setting [5]) and in experiment [3] (setting [6]) was less than 100% each time.

In the case of `CC[C@]1(O)CC[C@@]2(C)C(=CC[C@H]3[C@@H]4CC[C@H]([C@H](C)[C@@H](O)CC5CCC(C)(C)CC5)[C@@]4(C)CC[C@@H]32)C1` [Compound 49, (3S,8S,9S,10R,13S,14S,17R)-17-((2S,3S)-4-(4,4-dimethylcyclohexyl)-3-hydroxybutan-2-yl)-3-ethyl-10,13-dimethyl-2,3,4,7,8,9,10,11,12,13,14,15,16,17-tetradecahydro-1H-cyclopenta[a]phenanthren-3-ol], the pEC50 in experiment [2] (setting [4]) and in experiment [3] was less than 6.00 in each case. The Emax in experiment [2] (setting [5]) and in experiment [3] (setting [6]) was less than 100% throughout.

In the case of `CC(C)CC[C@H](O)[C@@H](C)[C@H]1CC[C@H]2[C@@H]3CC=C4C[C@@](C)(O)CC[C@]4(C)[C@H]3CC[C@]12C` [Compound 75, (3S,8S,9S,10R,13S,14S,17R)-17-((2S,3S)-3-hydroxy-6-methylheptan-2-yl)-3,10,13-trimethyl-2,3,4,7,8,9,10,11,12,13,14,15,16,17-tetradecahydro-1H-cyclopenta[a]phenanthren-3-ol], the pEC50 in experiment [2] (setting [4]) and in experiment [3] was less than 6.00 in each case. Besides, the Emax in experiment [2] (setting [5]) and in experiment [3] (setting [6]) was less than 100% each time.

As for `CC[C@]1(O)CC[C@H]2C(=CC[C@@H]3[C@@H]2CC[C@]2(C)[C@@H]([C@H](C)[C@H](O)CCC(C)C)CC[C@@H]32)C1` [Compound 3, (3S,8R,9S,10R,13S,14S,17R)-3-ethyl-17-((2S,3R)-3-hydroxy-6-methylheptan-2-yl)-13-methyl-2,3,4,7,8,9,10,11,12,13,14,15,16,17-tetradecahydro-1H-cyclopenta[a]phenanthren-3-ol], the pEC50 in experiment [2] (setting [4]) and in experiment [3] was less than 6.00 throughout. The Emax in experiment [2] (setting [5]) and in experiment [3] (setting [6]) was less than 100% each time.

With `C[C@H]([C@H](O)C[C@H](O)c1ccccc1)[C@H]1CC[C@H]2[C@@H]3CC[C@H]4C[C@](O)(C(F)(F)F)CC[C@]4(C)[C@H]3CC[C@]12C` [Compound 13, (1S,3R,4S)-4-((3S,5S,8R,9S,10S,13S,14S,17R)-3-hydroxy-10,13-dimethyl-3-(trifluoromethyl)hexadecahydro-1H-cyclopenta[a]phenanthren-17-yl)-1-phenylpentane-1,3-diol], the negative logarithm of the EC50 (pEC50) in experiment [2] was 7.00 to 9.00; in experiment [3] (peak current amplitude, co-application with EC20 L-glutamate and 30 μM glycine, HEK293, read-out: GluN2A PCA EC50) it was 7.00 to 9.00. Besides, the Emax in experiment [2] was 100 to 500%; in experiment [3] (setting [6]), less than 100%.
